Measured values published in US9365576B2, “Pyrrolopyrrolidinone compounds” (Novartis AG, priority 2012, dated 2016).

The compounds below were run against human MDM2 protein (amino acids 2-188) (Homo sapiens (Human), UniProt Q00987) (assay: TR-FRET assay, p53-MDM2 Assay 2 (modified)). Settings: TR-FRET; 0.1 nM MDM2, 0.1 nM Europium labeled streptavidin, Tecan genios Pro reader; read-out: IC50 p53-MDM2 Assay 2.
Format: binding
Summary of the method: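 IC50 values were curve-fitted from the time-resolved 665/620 nm emission ratio after 340 nm excitation. The assay combined 0.625 nM europium-streptavidin donor with 1.25 nM C-terminally biotinylated MDM2 2–188 (15 min, RT), followed by 15 min with 10 nM Cy5-labeled p53 18–26 acceptor peptide.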

Chain of human MDM2 protein (amino acids 2-188) (Q00987 2-188): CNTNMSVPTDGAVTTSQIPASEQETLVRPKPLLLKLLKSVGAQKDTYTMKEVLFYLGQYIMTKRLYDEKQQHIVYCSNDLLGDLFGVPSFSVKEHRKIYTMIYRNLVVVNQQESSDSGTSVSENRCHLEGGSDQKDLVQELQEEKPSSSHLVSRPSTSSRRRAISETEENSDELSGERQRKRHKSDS

Row | SMILES | IC50 [nM]
1 | CNc1ncc(-c2cc3c(n2C(C)C)[C@@H](c2ccc(C#N)cc2)N(c2cc(Cl)cn(C)c2=O)C3=O)c(OC)n1 [Example 166, 4-[(R)-5-(5-Chloro-1-methyl-2-oxo-1,2-dihydro-pyridin-3-yl)-1-isopropyl-2-(4-methoxy-2-methylamino-pyrimidin-5-yl)-4-oxo-1,4,5,6-tetrahydro-pyrrolo[3,4-b]pyrrol-6-yl]-benzonitrile] | 293
2 | COc1nc(N(C)C)ncc1-c1cc2c(n1C(C)C)[C@@H](c1ccc(C#N)cc1)N(c1cc(Cl)c[nH]c1=O)C2=O [Example 168, 4-[(R)-5-(5-Chloro-2-oxo-1,2-dihydro-pyridin-3-yl)-2-(2-dimethylamino-4-methoxy-pyrimidin-5-yl)-1-isopropyl-4-oxo-1,4,5,6-tetrahydro-pyrrolo[3,4-b]pyrrol-6-yl]-benzonitrile] | 107
3 | COc1nc(N(C)C)ncc1-c1cc2c(n1C(C)C)[C@H](c1ccc(C#N)cc1)N(c1ccc(F)c(Cl)c1)C2=O [Example 169, 4-[(S)-5-(3-Chloro-4-fluoro-phenyl)-2-(2-dimethylamino-4-methoxy-pyrimidin-5-yl)-1-isopropyl-4-oxo-1,4,5,6-tetrahydro-pyrrolo[3,4-b]pyrrol-6-yl]-benzonitrile] | 0.357
4 | COc1nc(N(C)C)ncc1-c1cc2c(n1C(C)C)[C@@H](c1ccc(C#N)cc1)N(c1ccc(F)c(Cl)c1)C2=O [Example 170, 4-[(R)-5-(3-Chloro-4-fluoro-phenyl)-2-(2-dimethylamino-4-methoxy-pyrimidin-5-yl)-1-isopropyl-4-oxo-1,4,5,6-tetrahydro-pyrrolo[3,4-b]pyrrol-6-yl]-benzonitrile] | 31.3
5 | COc1nc(N)ncc1-c1cc2c(n1C(C)C)[C@H](c1ccc(C#N)cc1)N(c1ccc(F)c(Cl)c1)C2=O [Example 171, 4-[(S)-2-(2-Amino-4-methoxy-pyrimidin-5-yl)-5-(3-chloro-4-fluoro-phenyl)-1-isopropyl-4-oxo-1,4,5,6-tetrahydro-pyrrolo[3,4-b]pyrrol-6-yl]-benzonitrile] | 0.699
6 | COc1nc(N)ncc1-c1cc2c(n1C(C)C)[C@@H](c1ccc(C#N)cc1)N(c1ccc(F)c(Cl)c1)C2=O [Example 172, 4-[(R)-2-(2-Amino-4-methoxy-pyrimidin-5-yl)-5-(3-chloro-4-fluoro-phenyl)-1-isopropyl-4-oxo-1,4,5,6-tetrahydro-pyrrolo[3,4-b]pyrrol-6-yl]-benzonitrile] | 115
7 | COc1ncc(-c2cc3c(n2C(C)C)C(c2ccc(C#N)cc2)N([C@H]2CC[C@H](O)CC2)C3=O)c(OC)n1 (stereo partly drawn) [Example 173, 4-[2-(2,4-Dimethoxy-pyrimidin-5-yl)-5-(trans-4-hydroxy-cyclohexyl)-1-isopropyl-4-oxo-1,4,5,6-tetrahydro-pyrrolo[3,4-b]pyrrol-6-yl]-benzonitrile] | 13.6
8 | COc1nc(N(C)C)ncc1-c1cc2c(n1C(C)C)C(c1ccc(C#N)cc1)N([C@H]1CC[C@H](O)CC1)C2=O (stereo partly drawn) [Example 174, 4-[2-(2-Dimethylamino-4-methoxy-pyrimidin-5-yl)-5-(trans-4-hydroxy-cyclohexyl)-1-isopropyl-4-oxo-1,4,5,6-tetrahydro-pyrrolo[3,4-b]pyrrol-6-yl]-benzonitrile] | 1.67
9 | COc1nc(N)ncc1-c1cc2c(n1C(C)C)C(c1ccc(Cl)cc1)N(c1cc(C)nn1C)C2=O (stereo not shown) [Example 175, 2-(2-Amino-4-methoxy-pyrimidin-5-yl)-6-(4-chloro-phenyl)-5-(2,5-dimethyl-2H-pyrazol-3-yl)-1-isopropyl-5,6-dihydro-1H-pyrrolo[3,4-b]pyrrol-4-one] | 3.72
10 | COc1ncc(-c2cc3c(n2C(C)C)C(c2ccc(Cl)cc2)N(c2cc(C)nn2C)C3=O)c(OC)n1 (stereo not shown) [Example 176, 6-(4-Chloro-phenyl)-2-(2,4-dimethoxy-pyrimidin-5-yl)-5-(2,5-dimethyl-2H-pyrazol-3-yl)-1-isopropyl-5,6-dihydro-1H-pyrrolo[3,4-b]pyrrol-4-one] | 0.87
11 | COc1nc(N(C)C)ncc1-c1cc2c(n1C(C)C)C(c1ccc(Cl)cc1)N(c1cc(C)nn1C)C2=O (stereo not shown) [Example 177, 6-(4-Chloro-phenyl)-2-(2-dimethylamino-4-methoxy-pyrimidin-5-yl)-5-(2,5-dimethyl-2H-pyrazol-3-yl)-1-isopropyl-5,6-dihydro-1H-pyrrolo[3,4-b]pyrrol-4-one] | 0.514
12 | COc1cn(C)c(=O)cc1-c1cc2c(n1C(C)C)C(c1ccc(Cl)cc1)N(c1cc(C)nn1C)C2=O (stereo not shown) [Example 178, 6-(4-Chloro-phenyl)-5-(2,5-dimethyl-2H-pyrazol-3-yl)-1-isopropyl-2-(5-methoxy-1-methyl-2-oxo-1,2-dihydro-pyridin-4-yl)-5,6-dihydro-1H-pyrrolo[3,4-b]pyrrol-4-one] | 1.07
13 | COc1ncc(-c2cc3c(n2C(C)C)C(c2ccc(C#N)cc2)N(c2cc(C)nn2C)C3=O)c(OC)n1 (stereo not shown) [Example 179, 4-[2-(2,4-Dimethoxy-pyrimidin-5-yl)-5-(2,5-dimethyl-2H-pyrazol-3-yl)-1-isopropyl-4-oxo-1,4,5,6-tetrahydro-pyrrolo[3,4-b]pyrrol-6-yl]-benzonitrile] | 3.46
14 | COc1nc(N(C)C)ncc1-c1cc2c(n1C(C)C)C(c1ccc(C#N)cc1)N(c1cc(C)nn1C)C2=O (stereo not shown) [Example 180, 4-[2-(2-Dimethylamino-4-methoxy-pyrimidin-5-yl)-5-(2,5-dimethyl-2H-pyrazol-3-yl)-1-isopropyl-4-oxo-1,4,5,6-tetrahydro-pyrrolo[3,4-b]pyrrol-6-yl]-benzonitrile] | 0.647
15 | COc1ncc(-c2cc3c(n2C(C)C)C(c2ccc(Cl)cc2)N(c2cn(C)nc2C)C3=O)c(OC)n1 (stereo not shown) [Example 181, 6-(4-Chloro-phenyl)-2-(2,4-dimethoxy-pyrimidin-5-yl)-5-(1,3-dimethyl-1H-pyrazol-4-yl)-1-isopropyl-5,6-dihydro-1H-pyrrolo[3,4-b]pyrrol-4-one] | 2.39
16 | COc1nc(N(C)C)ncc1-c1cc2c(n1C(C)C)C(c1ccc(Cl)cc1)N(c1cn(C)nc1C)C2=O (stereo not shown) [Example 182, 6-(4-Chloro-phenyl)-2-(2-dimethylamino-4-methoxy-pyrimidin-5-yl)-5-(1,3-dimethyl-1H-pyrazol-4-yl)-1-isopropyl-5,6-dihydro-1H-pyrrolo[3,4-b]pyrrol-4-one] | 0.659
17 | COc1ccc(S(C)(=O)=O)cc1-c1cc2c(n1C(C)C)C(c1ccc(Cl)cc1)N(c1cn(C)nc1C)C2=O (stereo not shown) [Example 183, 6-(4-Chloro-phenyl)-5-(1,3-dimethyl-1H-pyrazol-4-yl)-1-isopropyl-2-(5-methanesulfonyl-2-methoxy-phenyl)-5,6-dihydro-1H-pyrrolo[3,4-b]pyrrol-4-one] | 2.57
18 | COc1cn(C)c(=O)cc1-c1cc2c(n1C(C)C)C(c1ccc(Cl)cc1)N(c1cn(C)nc1C)C2=O (stereo not shown) [Example 184, 6-(4-Chloro-phenyl)-5-(1,3-dimethyl-1H-pyrazol-4-yl)-1-isopropyl-2-(5-methoxy-1-methyl-2-oxo-1,2-dihydro-pyridin-4-yl)-5,6-dihydro-1H-pyrrolo[3,4-b]pyrrol-4-one] | 5.6
19 | COc1nc(N(C)C)ncc1-c1cc2c(n1C(C)C)C(c1ccc(C#N)cc1)N(c1cc(Cl)c(=O)n(C)c1)C2=O (stereo not shown) [Example 185, 4-[5-(5-Chloro-1-methyl-6-oxo-1,6-dihydro-pyridin-3-yl)-2-(2-dimethylamino-4-methoxy-pyrimidin-5-yl)-1-isopropyl-4-oxo-1,4,5,6-tetrahydro-pyrrolo[3,4-b]pyrrol-6-yl]-benzonitrile] | 0.225
20 | COc1ncc(-c2cc3c(n2C(C)C)[C@H](c2ccc(C#N)cc2)N(c2cc(Cl)c(=O)n(C)c2)C3=O)c(OC)n1 [Example 186, 4-[(S)-5-(5-Chloro-1-methyl-6-oxo-1,6-dihydro-pyridin-3-yl)-2-(2,4-dimethoxy-pyrimidin-5-yl)-1-isopropyl-4-oxo-1,4,5,6-tetrahydro-pyrrolo[3,4-b]pyrrol-6-yl]-benzonitrile] | 0.108
21 | COc1ncc(-c2cc3c(n2C(C)C)[C@@H](c2ccc(C#N)cc2)N(c2cc(Cl)c(=O)n(C)c2)C3=O)c(OC)n1 [Example 187, 4-[(R)-5-(5-Chloro-1-methyl-6-oxo-1,6-dihydro-pyridin-3-yl)-2-(2,4-dimethoxy-pyrimidin-5-yl)-1-isopropyl-4-oxo-1,4,5,6-tetrahydro-pyrrolo[3,4-b]pyrrol-6-yl]-benzonitrile] | 144
22 | COc1nc(N(C)C)ncc1-c1cc2c(n1C(C)C)[C@H](c1ccc(Cl)cc1)N(c1c[nH]c(=O)c(Cl)c1)C2=O [Example 188, (S)-5-(5-Chloro-6-oxo-1,6-dihydro-pyridin-3-yl)-6-(4-chloro-phenyl)-2-(2-dimethylamino-4-methoxy-pyrimidin-5-yl)-1-isopropyl-5,6-dihydro-1H-pyrrolo[3,4-b]pyrrol-4-one] | 0.079
23 | COc1nc(N(C)C)ncc1-c1cc2c(n1C(C)C)[C@@H](c1ccc(Cl)cc1)N(c1c[nH]c(=O)c(Cl)c1)C2=O [Example 189, (R)-5-(5-Chloro-6-oxo-1,6-dihydro-pyridin-3-yl)-6-(4-chloro-phenyl)-2-(2-dimethylamino-4-methoxy-pyrimidin-5-yl)-1-isopropyl-5,6-dihydro-1H-pyrrolo[3,4-b]pyrrol-4-one] | 10.6
24 | COc1nc(N(C)C)ncc1-c1cc2c(n1C(C)C)[C@H](c1ccc(C#N)cc1)N(C1CCOCC1)C2=O [Example 190, 4-[(S)-2-(2-Dimethylamino-4-methoxy-pyrimidin-5-yl)-1-isopropyl-4-oxo-5-(tetrahydro-pyran-4-yl)-1,4,5,6-tetrahydro-pyrrolo[3,4-b]pyrrol-6-yl]-benzonitrile] | 0.631
25 | COc1nc(N(C)C)ncc1-c1cc2c(n1C(C)C)[C@@H](c1ccc(C#N)cc1)N(C1CCOCC1)C2=O [Example 191, 4-[(R)-2-(2-Dimethylamino-4-methoxy-pyrimidin-5-yl)-1-isopropyl-4-oxo-5-(tetrahydro-pyran-4-yl)-1,4,5,6-tetrahydro-pyrrolo[3,4-b]pyrrol-6-yl]-benzonitrile] | 280
